Measured values: ChEMBL document CHEMBL3885861, “Open TG-GATES”

Species: Rattus norvegicus
Assay: Open TG-GATES - Regimen: Single
Assay type: toxicity, organism-based, Sprague-Dawley
Set-up: regimen Single, gender Male, age 6 weeks
Conditions: in vivo, po, 60 mg/kg, route gavage, dose level Low; for APTT / Bas / Eos / Fbg / Ht / MCH / MCHC / MCV / Mono / PT / Plat / RBC / Ret / WBC: tissue Blood; for KIDNEY_L / KIDNEY_R / KIDNEY_TOTAL: tissue Kidney; for LIVER: tissue Liver

SMILES: CC(=O)Nc1nnc(S(N)(=O)=O)s1 [ACETAZOLAMIDE]
- gamma-GTP (6 h, tissue Plasma): 1 IU/L
- TERMINAL_BW (9 h): 205.8 g
- APTT (9 h): 21.4 s
- Bas (9 h): 0%
- Eos (9 h): 0.8%
- Fbg (9 h): 337.8 mg/dL
- Ht (9 h): 41.7%
- MCH (9 h): 20.5 pg
- MCHC (9 h): 31.4%
- MCV (9 h): 65.2 fL
- Mono (9 h): 1.8%
- PT (9 h): 16.7 s
- Plat (9 h): 125.8 x10_4/uL
- RBC (9 h): 640.2 x10_4/ul
- Ret (9 h): 8.7%
- WBC (9 h): 76.9 x10_2/uL
- KIDNEY_L (9 h): 0.9 g
- KIDNEY_R (9 h): 0.9 g
- KIDNEY_TOTAL (9 h): 1.8 g
- LIVER (9 h): 8.5 g
- ALP (9 h, tissue Plasma): 1425.8 IU/L
- AST (9 h, tissue Plasma): 59.8 IU/L
- BUN (9 h, tissue Plasma): 13.8 mg/dL
- CRE (9 h, tissue Plasma): 0.2 mg/dL
- Ca (9 h, tissue Plasma): 11.1 mg/dL
- Cl (9 h, tissue Plasma): 112.8 meq/L
- DBIL (9 h, tissue Plasma): 0 mg/dL
- GLC (9 h, tissue Plasma): 190.8 mg/dL
- IP (9 h, tissue Plasma): 9.5 mg/dL
- K (9 h, tissue Plasma): 4 meq/L
- LDH (9 h, tissue Plasma): 158.2 IU/L
- Na (9 h, tissue Plasma): 140 meq/L
- PL (9 h, tissue Plasma): 133.4 mg/dL
- RALB (9 h, tissue Plasma): 3.3 g/dL
- TBIL (9 h, tissue Plasma): 0.026 mg/dL
- TC (9 h, tissue Plasma): 81.8 mg/dL
- TG (9 h, tissue Plasma): 35.4 mg/dL
- TP (9 h, tissue Plasma): 5.9 g/dL
- gamma-GTP (9 h, tissue Plasma): 1 IU/L
- TERMINAL_BW (24 h): 217.9 g
- APTT (24 h): 20.2 s
- Bas (24 h): 0%
- Eos (24 h): 0.8%
- Fbg (24 h): 303.8 mg/dL
- Ht (24 h): 40.5%
- MCH (24 h): 20.9 pg
- MCHC (24 h): 33.3%
- MCV (24 h): 62.6 fL
- Mono (24 h): 1.6%
- PT (24 h): 16.7 s
- Plat (24 h): 117.7 x10_4/uL
- RBC (24 h): 647 x10_4/ul
- Ret (24 h): 7.7%
- WBC (24 h): 86.4 x10_2/uL
- KIDNEY_L (24 h): 0.9 g
- KIDNEY_R (24 h): 1 g
- KIDNEY_TOTAL (24 h): 1.9 g
- LIVER (24 h): 9.8 g
- ALP (24 h, tissue Plasma): 1708.2 IU/L
- AST (24 h, tissue Plasma): 61.2 IU/L
- BUN (24 h, tissue Plasma): 20 mg/dL
- CRE (24 h, tissue Plasma): 0.1 mg/dL
- Ca (24 h, tissue Plasma): 10.9 mg/dL
- Cl (24 h, tissue Plasma): 106.8 meq/L
- DBIL (24 h, tissue Plasma): 0 mg/dL
- GLC (24 h, tissue Plasma): 179.4 mg/dL
- IP (24 h, tissue Plasma): 7.5 mg/dL
- K (24 h, tissue Plasma): 4 meq/L
- LDH (24 h, tissue Plasma): 156.8 IU/L
- Na (24 h, tissue Plasma): 142.6 meq/L
- PL (24 h, tissue Plasma): 136.2 mg/dL
- RALB (24 h, tissue Plasma): 3.2 g/dL
- TBIL (24 h, tissue Plasma): 0.01 mg/dL
- TC (24 h, tissue Plasma): 73.2 mg/dL
- TG (24 h, tissue Plasma): 109.6 mg/dL
